From patent US20130245006A1, “NOVEL INDOLIZINE DERIVATIVES, AND PREPARATION AND THERAPEUTIC USE THEREOF” (SANOFI, priority 2010, published 2013)
≈ marks a conversion by molar mass, not a printed value. Counter-ions that a name gives are not always drawn.

How the values were obtained:
[1] = Solubility by HPLC relative to a reference sample; assay type: physicochemical; settings: aqueous buffer, phosphate buffer, at the pH given
Procedure: The evaluation of the solubility of the compounds of the invention is carried out at pH 4 (using a phosphate buffer, […]) by HPLC using an H2O/CH3CN/CH3SO3H gradient, relative to a reference sample (a dilute solution of the product to be evaluated which serves as an internal control). The solubility S results are expressed in mg/ml. Generally, the compounds of the present invention have a solubility S≧4 mg/ml at pH≧4. Among them, mention may be made of the solubilities of the following compounds in the table below: […]

Compound: CCc1cc2cc(C(=O)N(CC)Cc3nnn(C)n3)ccn2c1C(=O)c1ccc(CCCNC(C)(C)C)cc1 (as salt: hydrochloride) [Compound No. 17, 3-[4-(3-tert-Butylaminopropyl)benzoyl]-2-ethylindolizine-7-carboxylic acid ethyl(2-methyl-2H-tetrazol-5-ylmethyl)amide]
- melting point: 172 °C

Compound: CCCCc1cc2cc(C(=O)N(CC)[C@@H](C)C(=O)OC)ccn2c1C(=O)c1ccc(CCCN(CCCC)CCCC)cc1 (stereo in doubt) [compound 69, (S)-2-({2-Butyl-3-[4-(3-dibutylaminopropyl)benzoyl]indolizine-7-carbonyl}ethyl-amino)propionic acid methyl ester]
- solubility [1]: 5720 µg/mL (≈ 9.47 mM)

Compound: CCCCc1cc2cc(C(=O)N3CCC[C@H]3C(=O)OC)ccn2c1C(=O)c1ccc(CCCN(CCCC)CCCC)cc1 [Compound No. 2, (S)-1-{2-Butyl-3-[4-(3-dibutylamino-propyl)benzoyl]indolizine-7-carbonyl}-pyrrolidine-2-carboxylic acid methyl ester]
- solubility [1]: 6300 µg/mL (≈ 10.5 mM)

Compound: CCCCc1cc2cc(C(=O)N(CC)CC(=O)OC)ccn2c1C(=O)c1ccc(CCCN(CCCC)CCCC)cc1 [Compound No. 5, ({2-Butyl-3-[4-(3-dibutylaminopropyl)benzoyl]indolizine-7-carbonyl}ethylamino)acetic acid methyl ester]
- solubility [1]: 5900 µg/mL (≈ 10 mM)

Compound: CCCCc1cc2cc(C(=O)N(CC)CC(=O)O)ccn2c1C(=O)c1ccc(CCCN(CCCC)CCCC)cc1 [Compound No. 6, ({2-Butyl-3-[4-(3-dibutylaminopropyl)benzoyl]indolizine-7-carbonyl}ethylamino)acetic acid]
- solubility [1]: 4900 µg/mL (≈ 8.51 mM)

Compound: CCCCc1cc2cc(C(=O)N(CC)CCC(=O)O)ccn2c1C(=O)c1ccc(CCCN(CCCC)CCCC)cc1 [Compound No. 7, 3-({2-Butyl-3-[4-(3-dibutylaminopropyl)benzoyl]indolizine-7-carbonyl}ethylamino)propionic acid]
- solubility [1]: 7200 µg/mL (≈ 12.2 mM)

Compound: CCc1cc2cc(C(=O)N(CC(=O)OC)C(C)C)ccn2c1C(=O)c1ccc(CCCNC2CCCC2)cc1 [Compound No. 8, ({3-[4-(3-Cyclopentylaminopropyl)benzoyl]-2-ethylindolizine-7-carbonyl}isopropylamino)acetic acid methyl ester]
- solubility [1]: 4900 µg/mL (≈ 9.22 mM)

Compound: CCCCc1cc2cc(C(=O)N(CC)Cc3nnn(C)n3)ccn2c1C(=O)c1ccc(CCCN(CCCC)CCCC)cc1 [Compound No. 9, 2-Butyl-3-[4-(3-dibutylaminopropyl)benzoyl]indolizine-7-carboxylic acid ethyl(2-methyl-2H-tetrazol-5-ylmethyl)amide]
- solubility [1]: 7220 µg/mL (≈ 11.8 mM)

Compound: CCCCc1cc2cc(C(=O)N(CC)Cc3nc(C)no3)ccn2c1C(=O)c1ccc(CCCN(CCCC)CCCC)cc1 [Compound No. 10, 2-Butyl-3-[4-(3-dibutylaminopropyl)benzoyl]indolizine-7-carboxylic acid ethyl(3-methyl-[1,2,4]oxadiazol-5-ylmethyl)amide]
- solubility [1]: 4980 µg/mL (≈ 8.11 mM)

Compound: CCCCc1cc2cc(C(=O)N(CC)Cc3nnn[nH]3)ccn2c1C(=O)c1ccc(CCCN(CCCC)CCCC)cc1 [Compound No. 11, 2-Butyl-3-[4-(3-dibutylaminopropyl)benzoyl]indolizine-7-carboxylic acid ethyl(1H-tetrazole-5-ylmethyl)amide]
- solubility [1]: 240 µg/mL (≈ 0.4 mM)

Compound: CCc1cc2cc(C(=O)N(CC(=O)OC)C(C)C)ccn2c1C(=O)c1ccc(CCCC2(NC)CCCC2)cc1 [Compound No. 16, [(2-Ethyl-3-(4-[3-(1-methylaminocyclopentyl)propyl]benzoyl}indolizine-7-carbonyl)isopropylamino]acetic acid methyl ester]
- solubility [1]: 630 µg/mL (≈ 1.15 mM)

Compound: CCc1cc2cc(C(=O)N(CC)Cc3nnn(C)n3)ccn2c1C(=O)c1ccc(CCCNC(C)(C)C)cc1 [Compound No. 17, 3-[4-(3-tert-Butylaminopropyl)benzoyl]-2-ethylindolizine-7-carboxylic acid ethyl(2-methyl-2H-tetrazol-5-ylmethyl)amide]
- solubility [1]: 8230 µg/mL (≈ 15.5 mM)

Compound: CCc1cc2cc(C(=O)N(CC)Cc3nnn(C)n3)ccn2c1C(=O)c1ccc(CCC(C)(C)NC(C)(C)C)cc1 [Compound No. 18, 3-[4-(3-tert-Butylamino-3-methylbutyl)benzoyl]-2-ethylindolizine-7-carboxylic acid ethyl(2-methyl-2H-tetrazol-5-ylmethyl)amide]
- solubility [1]: 7880 µg/mL (≈ 14.1 mM)

Compound: CCc1cc2cc(C(=O)N(CC(=O)OC)C(C)C)ccn2c1C(=O)c1ccc(CCC(C)(C)NC2CCCC2)cc1 [Compound No. 19, ({3-[4-(3-Cyclopentylamino-3-methylbutyl)benzoyl]-2-ethylindolizine-7-carbonyl}isopropylamino)acetic acid methyl ester]
- solubility [1]: 7200 µg/mL (≈ 12.9 mM)

Compound: CCCCc1cc2cc(C(=O)N(CC)CCOC(C)C)ccn2c1C(=O)c1ccc(CCCN(CCCC)CCCC)cc1 [compound 23, 2-Butyl-3-[4-(3-dibutylaminopropyl)benzoyl]indolizine-7-carboxylic acid ethyl(2-isopropoxyethyl)amide]
- solubility [1]: 6170 µg/mL (≈ 10.2 mM)

Compound: CCCCc1cc2cc(C(=O)N(CC)CC(=O)OCC)ccn2c1C(=O)c1ccc(CCCN(CCCC)CCCC)cc1 [compound 26, ({2-Butyl-3-[4-(3-dibutylamino-propyl)benzoyl]indolizine-7-carbonyl}ethylamino)acetic acid ethyl ester]
- solubility [1]: 1140 µg/mL (≈ 1.89 mM)

Compound: CCCCc1cc2cc(C(=O)N(CC(=O)OC)C(C)C)ccn2c1C(=O)c1ccc(CCCN(CCCC)CCCC)cc1 [compound 28, ({2-Butyl-3-[4-(3-dibutylamino-propyl)benzoyl]indolizine-7-carbonyl}isopropyl-amino)acetic acid methyl ester]
- solubility [1]: 2420 µg/mL (≈ 4.01 mM)

Compound: CCc1cc2cc(C(=O)N(CC(=O)OC)C(C)C)ccn2c1C(=O)c1ccc(CCCNC(C)(C)C)cc1 [compound 31, ({3-[4-(3-tert-Butylaminopropyl)benzoyl]-2-ethylindolizine-7-carbonyl}isopropylamino)acetic acid methyl ester]
- solubility [1]: 2800 µg/mL (≈ 5.39 mM)

Compound: CCc1cc2cc(C(=O)N(CC(=O)OC)C(C)C)ccn2c1C(=O)c1ccc(CCCNC2CCCCC2)cc1 [compound 35, ({3-[4-(3-Cyclohexylaminopropyl)benzoyl]-2-ethylindolizine-7-carbonyl}isopropylamino)acetic acid methyl ester]
- solubility [1]: 1570 µg/mL (≈ 2.88 mM)

Compound: CCc1cc2cc(C(=O)N3CCC[C@@]3(C)C(=O)OC)ccn2c1C(=O)c1ccc(CCCNC(C)(C)C)cc1 [compound 50, (S)-1-{3-[4-(3-tert-Butylaminopropyl)benzoyl]-2-ethylindolizine-7-carbonyl}-2-methylpyrrolidine-2-carboxylic acid methyl ester]
- solubility [1]: 8980 µg/mL (≈ 16.9 mM)

Compound: CCc1cc2cc(C(=O)N(CC(=O)OC)C(C)C)ccn2c1C(=O)c1ccc(CCCN(CC)C(C)C)cc1 [compound 55, [(2-Ethyl-3-{4-[3-(ethylisopropylamino)propyl]benzoyl}indolizine-7-carbonyl)isopropylamino]acetic acid methyl ester]
- solubility [1]: 8820 µg/mL (≈ 16.5 mM)

Compound: CCCCN(CCCC)CCCc1ccc(C(=O)c2ccc3cc(C(=O)N(CC(=O)OC)C(C)C)ccn23)cc1 [compound 56, ({3-[4-(3-Dibutylamino-propyl)benzoyl]indolizine-7-carbonyl}isopropyl-amino)acetic acid methyl ester]
- solubility [1]: 8300 µg/mL (≈ 15.2 mM)

Compound: CCCCN(CCCC)CCCc1ccc(C(=O)c2c(CC)cc3cc(C(=O)N(CC)CC(=O)OC(C)C)ccn23)cc1 [compound 58, ({3-[4-(3-Dibutylamino-propyl)benzoyl]-2-ethylindolizine-7-carbonyl}ethyl-amino)acetic acid isopropyl ester]
- solubility [1]: 6300 µg/mL (≈ 10.7 mM)

Compound: CCCCc1cc2cc(C(=O)N(CC(=O)OC(C)C)C(C)C)ccn2c1C(=O)c1ccc(CCCN(CCCC)CCCC)cc1 [compound 59, ({2-Butyl-3-[4-(3-dibutylaminopropyl)-benzoyl]indolizine-7-carbonyl}-isopropylamino)acetic acid isopropyl ester]
- solubility [1]: 5700 µg/mL (≈ 9.02 mM)

Compound: CCCN(CCC)CCCc1ccc(C(=O)c2c(CC)cc3cc(C(=O)N(CC(=O)OC)C(C)C)ccn23)cc1 [compound 61, ({3-[4-(3-Dipropylamino-propyl)benzoyl]-2-ethylindolizine-7-carbonyl}isopropylamino)acetic acid methyl ester]
- solubility [1]: 8930 µg/mL (≈ 16.3 mM)

Compound: CCCCc1cc2cc(C(=O)N(CC(=O)OC)C(C)C)ccn2c1C(=O)c1ccc(CCCN(CC)CCCC)cc1 [compound 62, [(2-Butyl-3-{4-[3-(butylethylamino)propyl]benzoyl}indolizine-7-carbonyl)isopropylamino]acetic acid methyl ester]
- solubility [1]: 5300 µg/mL (≈ 9.2 mM)

Compound: CCCCc1cc2cc(C(=O)N(CC(=O)O)C(C)C)ccn2c1C(=O)c1ccc(CCCN(CC)CC)cc1 [compound 75, ({2-Butyl-3-[4-(3-diethylamino-propyl)benzoyl]indolizine-7-carbonyl}isopropylamino)acetic acid]
- solubility [1]: 8400 µg/mL (≈ 15.7 mM)

Compound: CCc1cc2cc(C(=O)N(CC(=O)O)C(C)C)ccn2c1C(=O)c1ccc(CCCNC(C)(C)C)cc1 [compound 76, ({3-[4-(3-tert-Butylamino-propyl)benzoyl]-2-ethylindolizine-7-carbonyl}isopropylamino)acetic acid]
- solubility [1]: 6200 µg/mL (≈ 12.3 mM)

Compound: CCc1cc2cc(C(=O)N(CC(=O)OC)C(C)C)ccn2c1C(=O)c1ccc(CCCC2(NC(C)C)CCCC2)cc1 [compound 79, [(2-Ethyl-3-{4-[3-(1-isopropylamino-cyclopentyl)propyl]benzoyl}indolizine-7-carbonyl)isopropylamino]acetic acid methyl ester]
- solubility [1]: 8020 µg/mL (≈ 14 mM)

Compound: CCCCc1cc2cc(C(=O)N(CC)Cc3nc(C)no3)ccn2c1C(=O)c1ccc(C2CCNCC2)cc1 [compound 80, 2-Butyl-3-(4-piperidin-4-ylbenzoyl)indolizine-7-carboxylic acid ethyl(3-methyl-[1,2,4]oxadizol-5-ylmethyl)amide]
- solubility [1]: 4200 µg/mL (≈ 7.96 mM)
